Assays:
[1] = system: hepatic macrophages (Kupffer cells), monocytes and B cells; assay: Intravital microscopy (IVM) of liver after mirtazapine treatment; assay type: in vivo, mouse
Text: Rationale and Relevant Preliminary Data: The normal liver macrophage pool consists of a large self-renewing, non-migratory population of KCs that are important for maintaining tissue homeostasis^1-3. KCs are situated within the sinusoidal blood flow and are an essential component of hepatic innate immunity, playing key roles in inflammation and defense^2, 4. In addition, KCs fulfill homeostatic functions important for normal liver physiology5. KCs are capable of considerable phenotypic plasticity and are highly sensitive to changes within the hepatic environment, including cytokines^2, 4, 6, 7. In response to environmental cues, KCs are activated and can be polarized along a spectrum between M1-like (induced by IFNγ, TNFα, IL-1β, IL-12, TLR4 agonists) and M2-like (induced by IL-4, IL-13, IL-10) phenotypes^2, 4, 6, 7, and can dynamically shift between these phenotypic extremes in response to changes in their microenvironment^1, 2, 4, 8. This shift is critical for regulating inflammatory and repair processes in the liver^1, 8, 9.

hepatic B cells = assay: Hepatic B cell characterization by flow cytometry, with liver/plasma cytokine and chemokine levels (Example 6); assay type: in vivo, mouse
Procedure: (§1) Male C57BL/6 mice (age 8-10 wks) were treated with mirt (20 mg/kg ip) or vehicle and livers removed 3-5 hrs later for B cell isolation and characterization by flow cytometry (FACS). Similarly peripheral blood and splenic B cells numbers were determined by FACS. Liver cytokine and chemokine levels were measured by Luminex®.

[2] = system: peripheral blood and splenic B cells; assay: Peripheral blood and splenic B cells by flow cytometry (Example 6); assay type: in vivo, mouse; conditions: 20 mg/kg ip, 5 hrs post-treatment
Procedure: as §1

[3] = system: antigen-induced arthritis (mBSA); assay: Antigen-induced arthritis (AIA) mouse model; assay type: in vivo; conditions: 20 mg/kg, 24 hrs post-antigen challenge
Text: The antigen-induced arthritis (AIA) mouse model is a well-characterized model that is extensively used to provide insights into the pathogenesis of RA. AIA is critically dependent on an early innate immune response (within 24 hrs post-induction) mediated by synovial TM's and neutrophils which drive subsequent adaptive immune responses and chronic joint inflammation. Proinflammatory cytokines (eg. TNFα, IL-17A and IL-1) and chemokines (eg. CXCL1, CXCL2) recruit neutrophils to the joint in this model. AIA is induced by the intradermal (tail base) injection of 500 μg methylated BSA (mBSA; Sigma) in 50 μl saline+complete Freund's adjuvant (CFA; Sigma) on day 0. 14 days later mice receive an antigen challenge with mBSA (10 μg/10 μl saline) injection into the left knee joint. At various time points after antigen challenge knee swelling is assessed using calipers, and the knee cavity exposed and inflammatory response and tissue injury assessed by immune cell analyses (cell phenotyping by FACS, using our published protocols), cytokine/chemokine expression (by Luminex® and qRT-PCR), and scoring of histological joint damage. Assessment of joint innate immune responses will occur at 24 and 48 hrs post-antigen challenge42. […] Hypernociception was measured before and 24 hrs post-antigen challenge using an automatic dynamic plantar algesiometer (Hugo Basile Inc).

circulating TNFα = conditions: patients with major depressive disorder; cited from earlier work

Question: Which “Interactions between hepatic B cells (CD19+) and hepatic macrophages (F4/80+)” value ([1]; 20 mg/kg, 3 hrs post-treatment, preliminary data) does the source give for `CN1CCN2c3ncccc3Cc3ccccc3C2C1` (centres unmarked) [Mirtazapine] here?
Answer: trend towards increased interactions

Question: What about the “Kupffer cell (F4/80+) activation: retraction of cellular processes, rounding of cell shape” value ([1]; 1 hr after treatment (FIG. 14)) of the same compound?
Answer: activation of KCs

Question: And the “Hepatic monocyte populations in CCR2RFP/+CX3CR1GFP/+ reporter mice” value ([1]; ~20 hrs post-treatment, pilot study)?
Answer: apparent increase in overall hepatic monocyte numbers coupled with the appearance of CCR2+CX3CR1+ double positive monocytes

Question: And the “B cell CXCR3 expression levels (MFI)” value (hepatic B cells; 20 mg/kg ip, 3-5 hrs)?
Answer: 12180±315.9

Question: And the “Elevation of hepatic CXCL10 levels (Luminex)” value (hepatic B cells; 20 mg/kg ip, 3-5 hrs)?
Answer: ~120 fold

Question: What about the “Frequency of VLA-4+ hepatic B cells” value (hepatic B cells; 20 mg/kg ip, 3-5 hrs) of the same compound?
Answer: 61.9+1.8%

Question: What about the “Hepatic CXCR3+ B cells” value (hepatic B cells; 20 mg/kg ip, 3-5 hrs) of the same compound?
Answer: 47.5+1.4%

Question: What about the “Hepatic CXCR3hi B cells” value (hepatic B cells; 20 mg/kg ip, 3-5 hrs) of the same compound?
Answer: 30.7±1.5%

Question: What about the “Hepatic CXCR3lo B cells” value (hepatic B cells; 20 mg/kg ip, 3-5 hrs) of the same compound?
Answer: did not significantly alter

Question: What about the “Increase in hepatic IFNγ levels (Luminex)” value (hepatic B cells; 20 mg/kg ip, 3-5 hrs) of the same compound?
Answer: ~8 fold

Question: And the “VLA-4+CXCR3hi B cells” value (hepatic B cells; 20 mg/kg ip, 3-5 hrs)?
Answer: 16.1±1.7%

Question: And the “Decrease in total hepatic B cell (IgM+) numbers” value (hepatic B cells; 20 mg/kg ip, within 3-5 hours)?
Answer: ~48%

Question: And the “% B2 cells of IgM+ B cells in liver” value (hepatic B cells; 5 hr post-treatment)?
Answer: 29.6%+2.3%

Question: What about the “B1a B cells within the liver” value (hepatic B cells; 5 hrs post-treatment) of the same compound?
Answer: 32.4%+1.5%

Question: And the “Plasma levels of CXCL10 (ELISA)” value (hepatic B cells; 5 hrs post-treatment)?
Answer: 138.4 ± 24.4 pg/mL

Question: And the “Hepatic B1b B cells” value (hepatic B cells; 5 hrs post-treatment, NS)?
Answer: 23.5%+1.4%

Question: And the “CD11b+Ly6Chi monocytes producing CXCL10” value (hepatic B cells; flow cytometry, 3 hrs post-treatment)?
Answer: 12.2%±3.8%

Question: What about the “Hepatic VCAM-1 expression (immunohistochemistry)” value (hepatic B cells; post-mirt) of the same compound?
Answer: clear upregulation

Question: What about the “Peripheral blood B cells (as % of total CD45+ leukocytes)” value [2] of the same compound?
Answer: highly significant drop

Question: And the “Splenic B cell numbers” value [2]?
Answer: paralleled by similar changes

Question: What about the AIA-induced hypernociception [3] of the same compound?
Answer: attenuates

Question: What about the “Joint total neutrophil recruitment” value [3] of the same compound?
Answer: reduces

Question: And the “Synovial fluid CXCL1 levels” value [3]?
Answer: but not CXCL1

Question: What about the “Synovial fluid IL-1α levels” value [3] of the same compound?
Answer: reduces

Question: And the “Synovial fluid TNFα levels” value [3]?
Answer: reduces

Question: And the “Circulating TNFα levels” value (circulating TNFα)?
Answer: increased circulating TNFα levels

From patent US11510928B2, “Use of mirtazapine in the treatment of inflammatory disorders, autoimmune disease and PBC” (UTI Limited Partnership, priority 2017, dated 2022)
